Literature values as cited in US20070027175A1, “Antineoplastic activities of ellipticine and its derivatives” (priority 2005, published 2007).

System: DNA strand breakage
Settings: Multon et al., 1989; cited from earlier work

Row | SMILES | potency in DNA strand breakage, times less than m-AMSA [times]
1 | Cc1c2cc[n+](C)cc2c(C)c2c1[nH]c1ccc(O)cc12 [Celiptium] | 50
2 | CCN(CC)CC[n+]1ccc2c(C)c3[nH]c4ccc(O)cc4c3c(C)c2c1 [Detalliptinium] | 50
